Assay results as given in US11866457B2, “Clearing agent” (SAVID THERAPEUTICS INC., priority 2016, dated 2024).

What was measured:
[^125I]ST03-Cupid = In vivo test of clearing agent: change in blood radioactivity concentration of [^125I]ST03-Cupid in mice; details: mouse blood
Protocol: In order to examine the efficacy of Compound 14 (Zephyr1), ^125I-labeled ST03-Cupid ([^125I]ST03-Cupid) was administered to male mice via single intravenous administration, and the blood was then collected over time, so that a change in the blood radioactivity concentration caused by administration of Compound 14 was measured. Specifically, four experimental groups were prepared. In a first group, Compound 14 was administered to the mice via single intravenous administration, 6 hours after administration of [^125I]ST03-Cupid. A second group was defined as a control group for the first group, and a normal saline was administered to the mice, instead of Compound 14. In a third group, Compound 14 was administered to the mice via single intravenous administration, 24 hours after administration of [^125I]ST03-Cupid. A fourth group was defined as a control group for the third group, and a normal saline was administered to the mice, instead of Compound 14.
Specifically, with regard to administration of [^125I]ST03-Cupid to the mice, 100 μL of [^125I]ST03-Cupid was administered in a concentration of 50 kBq/100 μL to the mice via single intravenous administration ([…]/50 kBq/100 μL injection). Thereafter, 6 hours or 24 hours after administration of [^125I]ST03-Cupid, Compound 14 was administered to the mice in an amount of 2 times the number of moles of the administered ST03-Cupid ([…]/100 μL injection), or 100 μL of a normal saline was administered to the mice. It is to be noted that the experiments were carried out using the mice groups (n=4 to 6 in each group).
The blood was collected from the orbital vein of the mice over time. When Compound 14 was administered to the mice 6 hours after administration of [^125I]ST03-Cupid, blood collection was carried out with the following time intervals: first blood collection—10 minutes after administration of [^125I]ST03-Cupid, second blood collection—6 hours after administration of [^125]ST03-Cupid, third blood collection—10 minutes after administration of Saline or Compound 14, fourth blood collection—1 hour after administration of Saline or Compound 14, fifth blood collection—3 hours after administration of Saline or Compound 14, sixth blood collection—18 hours after administration of Saline or Compound 14, and seventh blood collection—24 hours after administration of Saline or Compound 14. Likewise, when Compound 14 was administered to the mice 24 hours after administration of [^125I]ST03-Cupid, blood collection was carried out with the following time intervals: first blood collection—10 minutes after administration of [^125]ST03-Cupid, second blood collection—24 hours after administration of [^125I]ST03-Cupid, third blood collection—10 minutes after administration of Saline or Compound 14, fourth blood collection—1 hour after administration of Saline or Compound 14, fifth blood collection—3 hours after administration of Saline or Compound 14, sixth blood collection—6 hours after administration of Saline or Compound 14, and seventh blood collection—24 hours after administration of Saline or Compound 14. The collected blood (40 to 50 μL) was measured using a gamma counter. The counting rate (dmp) measured with the gamma counter was divided by the amount of blood collected (g) to calculate a counting rate (dpm/g of blood) per unit weight, and the results were shown in a graph. Likewise, the counting rate (dmp) measured with the gamma counter was divided by the counting rate of [^125I]ST03-Cupid before administration, so as to calculate the remaining percentage (% ID/g of blood) in the dose after the administration. The results were shown in a graph. The measurement results are shown in Tables 1 and 2 and FIGS. 1 and 2.

Cupid [1] = molecular target: T1, Cupid (Streptomyces avidinii, UniProt P22629, E125D/E140N/N47D/N73G/R108K/R127K/S51D/S69N/Y107S/Y46S); assay: Affinity to Cupid, SPR kinetics analysis (Biacore T200, Single Cycle Kinetics, CEA-Cupid immobilized); type: binding
T1 construct: fused on or other part: Anti-CEACAM5 scFv antibody ST03 fused to Cupid as the molecular probe (ST03-Cupid = anti-CEA-Cupid = 'CEA-Cupid'); 6xHis tag at the C-terminus
T1 sequence (P22629 whole entry E125D/E140N/N47D/N73G/R108K/R127K/S51D/S69N/Y107S/Y46S, looked up, the tested form may be a part): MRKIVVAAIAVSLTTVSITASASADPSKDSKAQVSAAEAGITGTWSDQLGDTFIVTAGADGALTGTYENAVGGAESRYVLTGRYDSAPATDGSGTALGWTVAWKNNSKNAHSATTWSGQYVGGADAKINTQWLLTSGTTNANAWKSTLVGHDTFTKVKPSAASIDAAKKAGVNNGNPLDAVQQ
Protocol: (§1) In order to examine the affinity of Zephyr1 and Zephyr2 to Cupid, kinetics analysis was carried out using SPR (Biacore T200). Specifically, using Amin Coupling Kit (GE Healthcare), CEA-Cupid serving as a ligand was immobilized on Sensor Chip CM5 (GE Healthcare), targeting 5000RU. Thereafter, using 5 two-fold serial dilutions (from 10 nM) of Zephyr1 or Zephyr2 serving as an analyte, kinetics analysis was carried out according to a Single Cycle Kinetics method. Thereafter, using Biacore T200 Evaluation Software, version 2.0 (GE Healthcare), the obtained data were fitted at a Bivalent Analyte mode, and kinetic parameters were calculated. As a result, Zephyr1: ka=3.792E+4, kd=4.42E−6 (FIG. 3A); and Zephyr2: ka=1.578E+7, kd=0.09339 (FIG. 3B).

Cupid [2] = molecular target: T2, Cupid (Streptomyces avidinii, UniProt P22629, Y46S/N47D/S51D/S69N/N73G/Y107S/R108K/E125D/R127K/E140N); assay: as above; type: binding; details: for ka / kd: Bivalent Analyte fit
T2 construct: fused on or other part: Anti-CEACAM5 scFv antibody ST03 fused to Cupid as the molecular probe (ST03-Cupid = anti-CEA-Cupid = 'CEA-Cupid'); 6xHis tag at the C-terminus
T2 sequence (P22629 whole entry Y46S/N47D/S51D/S69N/N73G/Y107S/R108K/E125D/R127K/E140N, looked up, the tested form may be a part): as the sequence (P22629 whole entry E125D/E140N/N47D/N73G/R108K/R127K/S51D/S69N/Y107S/Y46S, looked up, the tested form may be a part) above
Protocol: as §1

CEA-Cupid = assay: Clearance of Cupid by Zephyr2 in vivo, xenograft mouse models, blood radioactivity of Psyche-B-DOTA(^111In); details: Zephyr2 20 hours after CEA-Cupid; Psyche-B-DOTA(111In) two hours later; blood collected 4 hours after labeling substance
Protocol: A 100 mM acetate buffer was added to ^111InCl3 solution 37 MBq (approx. […]) in the same volume as the ^111InCl3 solution, and the pH of the mixed solution was then adjusted to pH 4 to 5. Psyche-B-DOTA was added to the mixed solution at a molar ratio of 1000 times (10 nmol), such that the concentration of DMSO became 0.2% or more. The thus obtained mixture was heated at 80° C. for 15 minutes or more. Thereafter, the reaction mixture was analyzed according to HPLC, and the radiochemical purity was confirmed. The mixture was diluted with a 10 mM acetate buffer to a concentration of 1 nmol/mL, and the obtained solution was used as an administration solution.
Whether or not Cupid existing in the blood of a living body is cleared by Zephyr2 was examined by performing an experiment using xenograft mouse models. The experiment was carried out using three mice from a Zephyr2 administration group and three mice from a non-administration group (control group). Specifically, […] CEA-Cupid was administered to the xenograft mouse models, and 20 hours after the administration of CEA-Cupid, 100 μmol Zephyr2 was administered (the control group was untreated). […] Subsequently, 4 hours after the administration of the labeling substance, the blood was collected, and the amount of radioactivity therein was then measured using a gamma counter. […]

[3] = CA given 6 hr after [125I]ST03-Cupid, time 0.17 hr (before CA)
[4] = CA given 6 hr after [125I]ST03-Cupid, time 5.92 hr (before CA)
[5] = CA given 6 hr after [125I]ST03-Cupid, time 6.17 hr
[6] = CA given 6 hr after [125I]ST03-Cupid, time 7 hr
[7] = CA given 6 hr after [125I]ST03-Cupid, time 9 hr
[8] = CA given 6 hr after [125I]ST03-Cupid, time 24 hr
[9] = CA given 6 hr after [125I]ST03-Cupid, time 30 hr
[10] = CA given 24 hr after [125I]ST03-Cupid, time 0.17 hr (before CA)
[11] = CA given 24 hr after [125I]ST03-Cupid, time 23.92 hr (before CA)
[12] = CA given 24 hr after [125I]ST03-Cupid, time 24.17 hr
[13] = CA given 24 hr after [125I]ST03-Cupid, time 25 hr
[14] = CA given 24 hr after [125I]ST03-Cupid, time 27 hr
[15] = CA given 24 hr after [125I]ST03-Cupid, time 30 hr
[16] = CA given 24 hr after [125I]ST03-Cupid, time 48 hr

CC(=O)NC1C(SCCC(=O)NCCOCCOCCNC(=O)CCC(CCC(=O)NCCOCCOCCNC(=O)CCSC2OC(CO)C(O)C(O)C2NC(C)=O)(CCC(=O)NCCOCCOCCNC(=O)CCSC2OC(CO)C(O)C(O)C2NC(C)=O)NC(=O)OCCOCCOCCn2cc(COCCNC(=O)c3cc(NC(=O)CCCCCNC(=O)CCCC[C@@H]4SC[C@@H]5NC(=N)N[C@@H]54)cc(NC(=O)CCCCCNC(=O)CCCC[C@@H]4SC[C@@H]5NC(=N)N[C@@H]54)c3)nn2)OC(CO)C(O)C1O (stereo partly drawn) [Compound 14]
% Injected Dose/g of blood ([^125I]ST03-Cupid; [3]): 31.7 ± 3.6 % Injected Dose/g of blood
Radioactivity concentration ([^125I]ST03-Cupid; [3]): 599504 ± 68046 dpm/g
% Injected Dose/g of blood ([^125I]ST03-Cupid; [4]): 16.6 ± 2.2 % Injected Dose/g of blood
Radioactivity concentration ([^125I]ST03-Cupid; [4]): 312854 ± 42382 dpm/g
% Injected Dose/g of blood ([^125I]ST03-Cupid; [5]): 6.2 ± 1.8 % Injected Dose/g of blood
Radioactivity concentration ([^125I]ST03-Cupid; [5]): 117840 ± 34798 dpm/g
% Injected Dose/g of blood ([^125I]ST03-Cupid; [6]): 4.8 ± 1.6 % Injected Dose/g of blood
Radioactivity concentration ([^125I]ST03-Cupid; [6]): 90787 ± 29628 dpm/g
% Injected Dose/g of blood ([^125I]ST03-Cupid; [7]): 4.4 ± 1.6 % Injected Dose/g of blood
Radioactivity concentration ([^125I]ST03-Cupid; [7]): 83236 ± 29606 dpm/g
% Injected Dose/g of blood ([^125I]ST03-Cupid; [8]): 2.4 ± 0.8 % Injected Dose/g of blood
Radioactivity concentration ([^125I]ST03-Cupid; [8]): 46178 ± 15340 dpm/g
% Injected Dose/g of blood ([^125I]ST03-Cupid; [9]): 2.0 ± 0.7 % Injected Dose/g of blood
Radioactivity concentration ([^125I]ST03-Cupid; [9]): 37023 ± 13443 dpm/g
% Injected Dose/g of blood ([^125I]ST03-Cupid; [10]): 33.8 ± 2.5 % Injected Dose/g of blood
Radioactivity concentration ([^125I]ST03-Cupid; [10]): 638296 ± 48098 dpm/g
% Injected Dose/g of blood ([^125I]ST03-Cupid; [11]): 6.2 ± 0.9 % Injected Dose/g of blood
Radioactivity concentration ([^125I]ST03-Cupid; [11]): 116201 ± 17325 dpm/g
% Injected Dose/g of blood ([^125I]ST03-Cupid; [12]): 0.4 ± 0.1 % Injected Dose/g of blood
Radioactivity concentration ([^125I]ST03-Cupid; [12]): 8368 ± 1872 dpm/g
% Injected Dose/g of blood ([^125I]ST03-Cupid; [13]): 0.4 ± 0.1 % Injected Dose/g of blood
Radioactivity concentration ([^125I]ST03-Cupid; [13]): 7381 ± 1798 dpm/g
% Injected Dose/g of blood ([^125I]ST03-Cupid; [14]): 0.6 ± 0.1 % Injected Dose/g of blood
Radioactivity concentration ([^125I]ST03-Cupid; [14]): 10748 ± 2533 dpm/g
% Injected Dose/g of blood ([^125I]ST03-Cupid; [15]): 0.6 ± 0.2 % Injected Dose/g of blood
Radioactivity concentration ([^125I]ST03-Cupid; [15]): 12088 ± 3191 dpm/g
% Injected Dose/g of blood ([^125I]ST03-Cupid; [16]): 0.5 ± 0.1 % Injected Dose/g of blood
Radioactivity concentration ([^125I]ST03-Cupid; [16]): 9001 ± 1942 dpm/g
Kd (Cupid [1]): 0.117 nM
ka (Cupid [2]; SPR): 3.792E+4
kd (Cupid [2]; SPR): 4.42E−6

COC(=O)C(CCCCNC(=O)c1cc(NC(=O)NCCOCCOCCNC(=O)CCc2cn(CCOCCOCCOC(=O)NC(CCC(=O)NCCOCCOCCNC(=O)CCSC3OC(CO)C(O)C(O)C3NC(C)=O)(CCC(=O)NCCOCCOCCNC(=O)CCSC3OC(CO)C(O)C(O)C3NC(C)=O)CCC(=O)NCCOCCOCCNC(=O)CCSC3OC(CO)C(O)C(O)C3NC(C)=O)nn2)cc(C(=O)NCCCCC(NC(=O)CCCCC2SCC3NC(=N)NC32)C(=O)OC)c1)NC(=O)CCCCC1SCC2NC(=N)NC21 (stereo not drawn) [Compound 25]
ka (Cupid [2]; SPR): 1.578E+7
kd (Cupid [2]; SPR): 0.09339
Kd (Cupid [2]; SPR, printed as KD=ka/kd): 5.88 nM
affinity to Cupid reduced in comparison to that of Zephyr1 (Cupid [2]; ratio of KD values): approximately one fiftieth
amount of radioactivity in blood (CEA-Cupid): 4.51 % ID/g
